In EP0819689A1, “5-substituted (2H) chromenes” (Byk Gulden Lomberg Chemische Fabrik GmbH, priority 1996, dated 1998):

System: PDE IV
Experiment: Inhibition of PDE IV activity (method of Bauer and Schwabe, adapted to microtitre plates)
Assay type: biochemical
Details: Hemmung der PDE IV-Aktivität
Description: Der Aktivitätstest wurde nach der Methode von Bauer und Schwabe durchgeführt, die auf Mikrotiterplatten adaptiert wurde (Naunyn-Schmiedeberg's Arch. Pharmacol. 1980, 311, 193-198). Hierbei erfolgt im ersten Schritt die PDE-Reaktion. In einem zweiten Schritt wird das entstandene 5'-Nukleotid durch eine 5'-Nukleotidase des Schlangengiftes von ophiophagus hannah (King Cobra) zum ungeladenen Nukleosid gespalten. Im dritten Schritt wird das Nukleosid auf Ionenaustauschsäulen vom verbliebenen geladenen Substrat getrennt. Die Säulen werden mit 2 ml 30 mM Ammoniumformiat (pH 6,0) direkt in Minivials eluiert, in die noch 2 ml Szintillatorflüssigkeit zur Zählung gegeben wird.
Die für die erfindungsgemäßen Verbindungen ermittelten Hemmwerte ergeben sich aus der folgenden Tabelle A, in der die Nummern der Verbindungen den Nummern der Beispiele entsprechen. Tabelle A

SMILES	PDE 4 -logIC50
COc1ccc(/C=C/c2ccncc2)c2c1OC1(C=C2)CCCC1 [Verbindung 2, (E)-Spiro{5-[2-(pyrid-4-yl)ethenyl]-8-methoxy-[2H]chromen-2,1'-Cyclopentan}]	7,10
COc1ccc(CC(C#N)c2ccncc2)c2c1OC1(CCCC1)CC2 (racemic) [Verbindung 8, (±)-Spiro{5-[2-Cyano-2-(pyrid-4-yl)ethyl]-8-methoxychroman}]	6,95
COc1ccc(/C=C(\C#N)c2ccncc2)c2c1OC1(C=C2)CCCC1 [Verbindung 4, (Z)-Spiro{5-[2-Cyano-2-(pyrid-4-yl)ethenyl]-8-methoxy-[2H]chromen-2.1'-Cyclopentan}]	6,12
COc1ccc(C(O)Cc2ccncc2)c2c1OC1(C=C2)CCCC1 (racemic) [Verbindung 1, (±)-Spiro{5-[1-Hydroxy-2-(pyrid-4-yl)ethyl]-8-methoxy-[2H]chromen-2,1'-Cyclopentan}]	5,88
COc1ccc(/C=C(\C#N)c2ccccn2)c2c1OC(C)(C)C=C2 [Verbindung 7, (Z)-5-[2-Cyano-2-(pyrid-2-yl)ethenyl]-8-methoxy-2,2-dimethyl-[2H]chromen]	5,95
COc1ccc(CCc2ccncc2)c2c1OC1(CCCC1)CC2 [Verbindung 3, Spiro{5-[2-(pyrid-4-yl)ethyl]-8-methoxychroman-2.1'-Cyclopentan}]	7,59
COc1ccc(CC(C#N)c2ccncc2)c2c1OC(C)(C)CC2 (racemic) [Verbindung 9, (±)-5-[2-Cyano-2-(pyrid-4-yl)ethyl]-8-methoxy-2,2-dimethylchroman]	7,01
COc1ccc(/C=C(\C#N)c2ccncc2)c2c1OC(C)(C)C=C2 [Verbindung 5, (Z)-5-[2-Cyano-2-(pyrid-4-yl)ethenyl]-8-methoxy-2,2-dimethyl-[2H]chromen]	6,73
COc1ccc(CC(C#N)c2ccccn2)c2c1OC(C)(C)CC2 (racemic) [Verbindung 10, (±)-5-[2-Cyano-2-(pyrid-2-yl)ethyl]-8-methoxy-2,2-dimethylchroman]	6,76
COc1ccc(/C=C(\C#N)c2cccnc2)c2c1OC(C)(C)C=C2 [Verbindung 6, (Z)-5-[2-Cyano-2-(pyrid-3-yl)ethenyl]-8-methoxy-2,2-dimethyl-[2H]chromen]	6,36
